Experiments:
Format in all cases: in vivo
[1] = system: guinea grass (Panicum maximum Jacq.); experiment: Test Example 15: pot test, soil and foliar treatment, visual growth inhibition; conditions: Megathyrsus maximus, 31st day after treatment, read-out: Growth inhibition rate (%) of guinea grass Measured value
Method: Upland field soil was put into a 1/1,000,000 ha pot, and seeds of guinea grass (Panicum maximum Jacq.) were sown. When the guinea grass reached 5.2 to 6.0-leaf stage, seeds of guinea grass were further sown in the same pot assuming conditions such that weeds would later grow. On the next day, predetermined amounts of ONEHOPE NYUZAI (tradename), Click (tradename), Spectrum (tradename) and Cadou (tradename) were diluted with water in an amount corresponding to 300 L/ha and applied for soil treatment and for foliar treatment by a small sprayer.
(§1) On the 31 st day after treatment, the state of growth of the guinea grass was visually observed to determine the growth inhibition rate (%). The growth inhibition rate (%) (measured value) and the growth inhibition rate (%) calculated in the same manner as in the above Test Example 1 are shown in Table 15.

[2] = system: korean lespedeza (Kummerowia stipulacea (Maxim.) Makino); experiment: Test Example 6: pot test, soil treatment, visual growth inhibition; conditions: soil treatment, 14th day after treatment, read-out: Growth inhibition rate (%) of korean lespedeza Measured value
Method: (§2) Upland field soil was put into a 1/300,000 ha pot, and seeds of korean lespedeza (Kummerowia stipulacea (Maxim.) Makino) were sown. On the next day, predetermined amounts of ONEHOPE NYUZAI (tradename), Click (tradename), Mikado (tradename) and a wettable powder containing bicyclopyrone prepared in accordance with a conventional formulation method were diluted with water (in an amount corresponding to 1,000 L/ha) and applied for soil treatment by a small sprayer.
as §1, with “14th” for “31 st”, “korean lespedeza” for “guinea grass”, “6.” for “15.”

[3] = system: wild oat (Avena fatua L.); experiment: Test Example 4: pot test, soil treatment, visual growth inhibition; conditions: soil treatment, 28th day after treatment, read-out: Growth inhibition rate (%) of wild oat Measured value
Method: as §2, with “1/1,000,000” for “1/300,000”, “wild oat (Avena fatua L.)” for “korean lespedeza (Kummerowia stipulacea (Maxim.) Makino)”, “Click” for “Click (tradename), Mikado”
as §1, with “28th” for “31 st”, “wild oat” for “guinea grass”, “4.” for “15.”

[4] = system: green foxtail (Setaria viridis (L.) P.Beauv.); experiment: Test Example 3: pot test, soil treatment, visual growth inhibition; conditions: soil treatment, 27th day after treatment, read-out: Growth inhibition rate (%) of green foxtail Measured value
Method: (§3) Upland field soil was put into a 1/1,000,000 ha pot, and seeds of green foxtail (Setaria viridis (L.) P.Beauv.) were sown. On the next day, predetermined amounts of ONEHOPE NYUZAI (tradename), Click (tradename) and SC formulation containing sulcotrione as an active ingredient (tradename: Mikado, manufactured by Bayer CropScience) were diluted with water (in an amount corresponding to 1,000 L/ha) and applied for soil treatment by a small sprayer.
as §1, with “27th” for “31 st”, “green foxtail” for “guinea grass”, “3.” for “15.”

[5] = system: sunn-hemp (Crotalaria juncea L.); experiment: Test Example 7: pot test, soil treatment, visual growth inhibition; conditions: soil treatment, 28th day after treatment, read-out: Growth inhibition rate (%) of sunn-hemp Measured value
Method: as §2, with “sunn-hemp (Crotalaria juncea L.)” for “korean lespedeza (Kummerowia stipulacea (Maxim.) Makino)”
as §1, with “28th” for “31 st”, “sunn-hemp” for “guinea grass”, “7.” for “15.”

[6] = system: common cocklebur (Xanthium strumarium L.); experiment: Test Example 12: pot test, foliar treatment, visual growth inhibition; conditions: foliar treatment at 4.2 to 4.3-leaf stage, 28th day after treatment, read-out: Growth inhibition rate (%) of common cocklebur Measured value
Method: Upland field soil was put into a 1/1,000,000 ha pot, and seeds of common cocklebur (Xanthium strumarium L.) were sown. When the common cocklebur reached 4.2 to 4.3-leaf stage, predetermined amounts of ONEHOPE NYUZAI (tradename), Click (tradename) and water dispersible granules containing flufenacet as an active ingredient (tradename: Cadou, manufactured by Bayer CropScience) were diluted with water (in an amount corresponding to 1,000 L/ha) and applied for foliar treatment by a small sprayer.
as §1, with “28th” for “31 st”, “common cocklebur” for “guinea grass”, “12.” for “15.”

[7] = system: wild oat (Avena fatua L.); experiment: Test Example 2: pot test, soil treatment, visual growth inhibition; conditions: 28th day after treatment, read-out: Growth inhibition rate (%) of wild oat Measured value
Method: as §3, with “1/500,000” for “1/1,000,000”, “wild oat (Avena fatua L.)” for “green foxtail (Setaria viridis (L.) P.Beauv.)”, “mesotrione” for “sulcotrione”, “Callisto,” for “Mikado,”, “Syngenta)” for “Bayer CropScience)”
as §1, with “28th” for “31 st”, “wild oat” for “guinea grass”, “2.” for “15.”

SMILES | inhibition at 400 g/ha ([1]; 400 g/ha) | inhibition at 1200 g/ha ([1]; 1200 g/ha) | inhibition at 200 g/ha ([2]; 200 g/ha) | inhibition at 2000 g/ha ([2]; 2000 g/ha) | inhibition at 500 g/ha ([3]; 500 g/ha) | inhibition at 500 g/ha ([4]; 500 g/ha) | inhibition at 200 g/ha ([5]; 200 g/ha) | inhibition at 250 g/ha ([6]; 250 g/ha) | inhibition at 500 g/ha ([7]; 500 g/ha) | inhibition at 20 g/ha ([1]; 20 g/ha) | inhibition at 60 g/ha ([1]; 60 g/ha) | inhibition at 10 g/ha ([2]; 10 g/ha) | inhibition at 100 g/ha ([2]; 100 g/ha) | inhibition at 30 g/ha ([3]; 30 g/ha) | inhibition at 30 g/ha ([4]; 30 g/ha) | inhibition at 100 g/ha ([5]; 100 g/ha) | inhibition at 15 g/ha ([6]; 15 g/ha) | inhibition at 30 g/ha ([7]; 30 g/ha)
CCNc1nc(Cl)nc(NC(C)(C)C)n1 [Terbuthylazine, N^2-tert-butyl-6-chloro-N^4-ethyl-1,3,5-triazine-2,4-diamine] | 5% | 23% | 10% | 25% | 15% | 18% | 30% | 30% | 60% | – | – | – | – | – | – | – | – | –
COc1cc(OC)nc(NC(=O)NS(=O)(=O)c2ncccc2C(=O)N(C)C)n1 [Nicosulfuron, 2-(4,6-dimethoxypyrimidin-2-ylcarbamoylsulfamoyl)-N,N-dimethylnicotinamide] | – | – | – | – | – | – | – | – | – | 46% | 83% | 0% | 0% | 30% | 60% | 40% | 80% | 70%

Reference: patent EP2832223A1, “HERBICIDAL COMPOSITION” (Ishihara Sangyo Kaisha, Ltd., priority 2012, dated 2013)
